Read-outs that look alike come from different tables or passages of the source. Peptide text beside a SMILES is read from it. * marks the point of attachment. 5FAM = O=C1OC2(c3ccc(O)cc3Oc3cc(O)ccc32)c2ccc(C(=O)*)cc21

In one series the test system is hCMEC/D3 cell monolayer. As to the kind of experiment: Transwell in vitro BBB model. The format is cell-based, human. The protocol:
For the construction of the in vitro BBB model, hCMEC/D3 cells were seeded on rat tail collagen-coated polycarbonate membranes (Transwell, No. 3401 Costar; Corning, Wiesbaden, Germany; 0.4 μm pore size; 1.13 cm^2 growth area) with a density of 100,000 cells cm^−2. Every three days the cell medium was change. In general after 7 days growth, the cells reached confluence. The transendothelial electrical resistance (TEER) and cell layer capacitance (CCL), which reflects the membrane surface area of the hCMEC/D3 cell monolayer, were measured using CellZscope system (NanoAnalytics, Münster, Germany). Cells with CCL values in the range of 0.5–5.0 μF cm^−2 indicate cell confluence and validate TEER values were selected for the transfer experiments. NLCs at different concentrations were introduced in to the apical side of the BBB model. The TEER values were measured during the incubation. After 24 h of incubation, the media from basal and apical sides were sampled and analysed for fluorescent measurement. CD31 and paracellular adherens (β-catenin) junctions were assessed by immunofluorescence labeling directly on the cell monolayer attached to the transwell membrane. Briefly, cells were fixed by 4% v/v paraformaldehyde for 10 min, rinsed and then permeabilised with 0.5% (v/v) Triton X-100 for 10 min. After rinsing samples were blocked by 5% w/v BSA for 1 h, followed by incubation with primary antibodies (rabbit polyclonal to CD31, rabbit polyclonal to anti-β-catenin) in 1% w/v BSA overnight at 4 °C. […] After rinsing, the red fluorescence from tight junction proteins was observed by a Leica AF6000LX microscope equipped with a 63 × objective using ×1.6 magnifications. […]
formation of multiple cell-layers was sometime observed from day 7 onward. […] TEER values and its corresponding capacitance were recorded after the introduction of peptide for 24 h. (d) & (e) Staining and quantification of endothelial cells (CD31) and adheren β-catenin markers confirming the presence of a functional tight junction before and after NLC ( 5 µM) challenge. […]

The subject of the next series is hCMEC/D3 cells. As to the kind of experiment: Cell uptake by flow cytometry. The format is cell-based, human. To be noted: 5 µM, 24 h, 37 °C, flow cytometry (Supplementary Fig. 13). The protocol:
Peptide internalisation was measured by flow cytometry (FACS ArrayTM Cell Analysis, Becton, Dickinson and Company, NJ, USA). Cells (1 × 10^5 cm^−2) were seeded on 24-well plates and grown 1 day at 37 °C and 5% CO2 in order to reach 60–70% confluence. The cells were washed 3 times with pre-heated PBS. The uptake studies were initiated by adding 500 µL of 5 µM fluorescence-labelled peptides (diluted in cell medium containing with different serum concentration). Serum concentration in incubation varied from 5 to 20% (v/v). […] A total of 10,000 cells were analysed by flow cytometry.

A further series deals with IL-6. The experiment in a line: ELISA of IL-6 in hippocampus. The format is in vivo, ICR mice. Conditions: 24 h after i.v. (LPS 24 h); Ave.
For another series, the system named is Iba-1. The experiment in a line: ELISA of Iba-1 in hippocampus. The format is in vivo, ICR mice. To be noted: 24 h after i.v. (LPS 24 h); Ave.
The subject of a further series is IL-1β. As to the kind of experiment: ELISA of IL-1β in hippocampus. The format is in vivo, ICR mice. Conditions: 24 h after i.v. (LPS 24 h); Ave.
Series [1] can be described thus: Blood count after intravenous injection. The format is in vivo, ICR mice. The text has this: Supplementary Table 2. Blood count following intravenous injection of FAM-CGY NLCs in free form and complexed with siRNA
Samples WBC RBC HGB HCT MCV MCH MCHC PLT
WBC: white blood cell; RBC: red blood cell count; HGB: haemoglobin; HCT: haematocrit; MCV: mean corpuscular volume; MCH: mean corpuscular haemoglobin; MCHC: mean corpuscular
significance (*p < 0.05). The results are mean ± s.d. (n = 3 animals per group). The experiment was repeated twice with identical results. The siRNA represent BACE-1-specific siRNA. The
final concentration of the peptide conjugate was 10 µM and that of siRNA was 48 nM, based on blood volume calculation equivalent to 6% of the body weight. LPS = lipopolysaccharide.

The next series concerns GFAP. As to the kind of experiment: ELISA of GFAP in hippocampus. The format is in vivo, ICR mice. Conditions: 24 h after i.v. (LPS 24 h); Ave.
For a further series, the system named is BACE1. As to the kind of experiment: In vivo BACE1 silencing, Western blot. To be noted: for BACE1 expression level: 72 nM siRNA. Also noted: species or system ICR mice. Here is the method:
For in vivo BACE1 silencing, 20 ICR mice were randomly divided into five groups (4 mice in each group) and administrated intravenously with either 72 nM siControl/FAM-CGY or BACE1 siRNA (final concentration, 72 nM) or 72 nM siControl/FAM-CGY scramble peptide1 or 48 nM BACE1 siRNA/FAM-CGY or 72 nM BACE1 siRNA/FAM-CGY, respectively. The final concentration of peptide was 10 μM. […] The frozen brain tissues (80–90 mg) were homogenized in RIPA lysis buffer (Beyotime, China) and centrifuged at 18,000 × g, 4 °C for 15 min. Protein concentration of the supernatant was determined using the BCA Protein Assay Kit. Equal amounts of protein from each sample were loaded on SDS-PAGE gels (4–15%) for the determination with level of the target protein determined by Western blotting using the anti-BACE1 antibody (1:1000 dilution) and detected with HRP-Goat-anti-rabbit) IgG (H + L) secondary antibody (1:3000).

Where [2] appears, read: 24 h after i.v., mean ± s.d., n = 3.

Experimental for IL-6: After 4, 24 and 72 h post injection, mice were sacrificed and perfused with 10 mL 0.9% (w/v) saline at a rate of 2 mL min^−1.
Hippocampus was dissected out, rinsed in ice-cold PBS thoroughly, weighted and immediately frozen in liquid nitrogen. Tissues were cut into small pieces and homogenized in 1 mL ice-cold PBS with a glass homogeniser and sonicated with an ultrasonic cell disrupter to break the cell membranes. Homogenates were centrifuges for 5 min at 5,000 × g and supernatants were assayed immediately for quantitative determination of TNF-α, IL-6, IL-1β, Iba-1 and GFAP by corresponding ELISA kits, respectively in accordance with manufacturer’s instructions.

For `O=C(O)c1ccc2c(c1)C(=O)OC21c2ccc(O)cc2Oc2cc(O)ccc21` [5-FAM, 5-carboxy-fluorescein, reference compound], in the series with hCMEC/D3 cell monolayer, the “transport across the hCMEC/D3 monolayer” value was “neither the fluorophor 5-FAM nor the scrambled peptide showed notable transport”.
Take `CC[C@H](C)[C@H](NC(=O)[C@H](CC(N)=O)NC(=O)[C@H](Cc1c[nH]cn1)NC(=O)[C@@H](NC(=O)[C@@H]1CCCN1C(=O)[C@H](CCCNC(=N)N)NC(=O)[C@H](Cc1ccc(O)cc1)NC(=O)CNC(=O)[C@H](CS)NC(=O)c1ccc2c(c1)C(=O)OC21c2ccc(O)cc2Oc2cc(O)ccc21)C(C)C)C(=O)NCC(=O)N[C@@H](Cc1c[nH]cn1)C(=O)N[C@@H](Cc1c[nH]c2ccccc12)C(=O)N[C@@H](CCCNC(=N)N)C(=O)N[C@@H](C)C(=O)N1CCC[C@H]1C(=O)NCC(=O)O` [FAM-CGY scrambled 1] (5FAM-CGYRPVHNIGHWRAPG-OH): in the series with hCMEC/D3 cell monolayer (apical to basal, 24 h, fluorescence), the “transport across the hCMEC/D3 monolayer” value was “neither the fluorophor 5-FAM nor the scrambled peptide showed notable transport”.
As to `CC[C@H](C)[C@H](NC(=O)[C@H](CC(N)=O)NC(=O)[C@H](Cc1c[nH]cn1)NC(=O)[C@@H](NC(=O)[C@@H]1CCCN1C(=O)[C@H](CCCNC(=N)N)NC(=O)[C@H](Cc1ccc(O)cc1)NC(=O)CNC(=O)c1ccc2c(c1)C(=O)OC21c2ccc(O)cc2Oc2cc(O)ccc21)C(C)C)C(=O)N[C@@H](CCCNC(=N)N)C(=O)NCC(=O)N[C@@H](Cc1c[nH]cn1)C(=O)N[C@@H](Cc1c[nH]c2ccccc12)C(=O)N[C@@H](C)C(=O)N1CCC[C@H]1C(=O)NCC(=O)O` [FAM-GYR] (5FAM-GYRPVHNIRGHWAPG-OH), the “cellular uptake in contrast to FAM-CGY” value in the series on hCMEC/D3 cells was “relatively low”.
As to “lipopolysaccharide from Escherichia coli O55:B5 [LPS]”, the “IL-6 in hippocampus (Figure 6f)” value in the series with IL-6 is 9.69. The “Iba-1 in hippocampus (Figure 6h)” value in the series on Iba-1 stood at 1.68. In addition, the “IL-1β in hippocampus (Figure 6g)” value in the series on IL-1β is on record as 36.79. The WBC in series [1] (24 h after i.v. (LPS 200 μg kg−1), mean ± s.d., n = 3) is reported as 1.49±0.26 (×109)L-1. For the same molecule, in series [1] (setting [2]), the HCT was found to be 71.90±6.10%, the HGB stood at 152.25±14.25 gL-1, the MCH amounted to 17.45 ± 0.45 pg and the MCHC came out at 211.75±2.63 gL-1. In series [1] (setting [2]), the MCV turned out to be 82.78 ± 1.23 fL, the PLT is 282.45±28.83 (×109)L-1 and the RBC is 8.72±0.61 (×1012)L-1. The “GFAP in hippocampus (Figure 6i)” value in the series on GFAP turned out to be 289.26.
Consider “siBACE1: sense 5′-GCUUUGUGGAGAUGGUGGATT-3′, antisense 5′-UCCACCAUCUCCACAAAGCTT-3′; siRNA of Supplementary Table 2 (chemistry not given here)”, for which the WBC in series [1] (mouse, in vivo, iv) is 4.54±0.30 (×109)L-1. In addition, the BACE1 expression level in the series on BACE1 (48 h after i.v., siControl = 100.00, Ave.) is listed as 101.87; in the series on BACE1 (48 h after i.v., siControl = 100.00, experiment 2), 94.53; with BACE1 (48 h after i.v., siControl = 100.00, experiment 3) it was 102.52; with BACE1 (peptide 10 μM where present, single i.v., 48 h, FAM-CGY+72 nM siControl = 100.00, experiment 1), 108.56. Besides, the “pharmacological activity in hippocampus” value in the series on BACE1 (i.v. BACE1 siRNA in free form or with FAM-SP1) is given as “no pharmacological activity”.

Values taken from article PMC6789111, “Crossing the blood-brain-barrier with nanoligand drug carriers self-assembled from a phage display peptide” (Nature Communications, 2019).
